Test system: patients with moderate to severe chronic low back pain
Test: Pain intensity (daily diary, 11-point numerical scale), low back pain study with titration and 12-week fixed-dose period
Type: in vivo, human
Conditions: for Pain intensity, change from baseline, MEAN (SD) / Pain intensity, percent change from baseline, MEAN (SD) / Pain intensity, actual value, MEAN (SD): LOCF imputation, average of last three days of dosing week; for Pain intensity, change from baseline, MEAN (SD) / Pain intensity, percent change from baseline, MEAN (SD) / Pain intensity, change from baseline, MAXIMUM / Pain intensity, change from baseline, MEDIAN / Pain intensity, change from baseline, MINIMUM / Pain intensity, percent change from baseline, MAXIMUM / Pain intensity, percent change from baseline, MEDIAN / Pain intensity, percent change from baseline, MINIMUM / Pain intensity, actual value, MEAN (SD) / Pain intensity, actual value, MAXIMUM / Pain intensity, actual value, MEDIAN / Pain intensity, actual value, MINIMUM: ITT population
Protocol: A multicenter, randomized, double-blind, active- and placebo-controlled study was designed and conducted.
In addition, adverse events and opioid-related adverse events were to be recorded in the daily diary.
For the pain intensity (PI) scale assessment, the patient was prompted with the question “How would you rate your overall pain intensity at this time?” and the PI score was recorded in the clinic at the Screening and Baseline Visits. Pain intensity was also assessed by prompting the patient with the questions “How would you rate your overall pain intensity during the past 24 hours?” and a daily PI diary score was recorded at bedtime. For both Pain Intensity prompts, the response was scored on an 11-point numerical scale (0=no pain and 10=severe pain).
The baseline average daily pain intensity score for each patient was calculated as the average of the daily bedtime pain intensity scores recorded during the 3 days immediately prior to baseline/start of titration period visit. The post-baseline average daily pain intensity scores were calculated as the average of the daily bedtime pain intensity scores recorded during the last 3 days of dosing prior to each visit. Missing data was imputed using the last-observation-carried-forward (LOCF) approach for efficacy variables in the fixed-dose period. If the first visit in the fixed-dose period was missing, the last value in the titration period was imputed forward. Unless indicated, all testing of statistical significance was two-sided, and a difference resulting in a p-value of equal to or less than 0.05 was considered statistically significant.
A primary efficacy endpoint was the percent change from baseline to the end of the fixed-dose period (Week 12) in average daily pain intensity. The percent change from baseline was calculated as [PI(baseline)−PI(fixed-dose)]/PI(baseline)*100. Data was summarized descriptively by treatment group. An analysis of covariance (ANCOVA) model including treatment and center as effects and baseline pain intensity as the covariate was used for global and pairwise inferences. Separate models were used to evaluate both the treatment by center and treatment by baseline pain intensity interaction terms.
A primary comparison of interest was oxycodone and naltrexone (e.g., BID or QID) versus oxycodone (e.g., QID). Secondary analyses included actual and percent change from baseline values of daily pain index, SF-12, and Oswestry disability index summarized descriptively by treatment group for both the titration and fixed-dose periods. Treatments were compared globally and in pairwise fashion at each visit in the fixed-dose period using an ANCOVA model that included treatment and center as effects and baseline pain intensity as the covariate. Separate models were used to evaluate both the treatment by center and treatment by baseline pain intensity interaction terms.

[1] = baseline to fixed dose week 1, LOCF
[2] = baseline to fixed dose week 2, LOCF
[3] = baseline to fixed dose week 3, LOCF
[4] = baseline to fixed dose week 4, LOCF
[5] = baseline to fixed dose week 5, LOCF
[6] = baseline to fixed dose week 6, LOCF

SMILES: COc1ccc2c3c1O[C@H]1C(=O)CC[C@@]4(O)[C@@H](C2)N(C)CC[C@]314 [OXY QID, oxycodone]
- Pain intensity, change from baseline, MEAN (SD) (baseline to fixed dose week 1): −3.6 (2.60)
- Pain intensity, percent change from baseline, MEAN (SD) (baseline to fixed dose week 1): −47.5 (33.12) percent
- Pain intensity, change from baseline, MAXIMUM [1]: 3.0
- Pain intensity, change from baseline, MEDIAN [1]: −3.7
- Pain intensity, change from baseline, MINIMUM [1]: −9.7
- Pain intensity, percent change from baseline, MAXIMUM [1]: 42.9%
- Pain intensity, percent change from baseline, MEDIAN [1]: −52.4%
- Pain intensity, percent change from baseline, MINIMUM [1]: −100.0%
- Pain intensity, change from baseline, MEAN (SD) (baseline to fixed dose week 2): −3.6 (2.59)
- Pain intensity, percent change from baseline, MEAN (SD) (baseline to fixed dose week 2): −47.1 (32.56) percent
- Pain intensity, change from baseline, MAXIMUM [2]: 3.0
- Pain intensity, change from baseline, MEDIAN [2]: −3.7
- Pain intensity, change from baseline, MINIMUM [2]: −9.7
- Pain intensity, percent change from baseline, MAXIMUM [2]: 42.9%
- Pain intensity, percent change from baseline, MEDIAN [2]: −50.0%
- Pain intensity, percent change from baseline, MINIMUM [2]: −100.0%
- Pain intensity, change from baseline, MEAN (SD) (baseline to fixed dose week 3): −3.7 (2.64)
- Pain intensity, percent change from baseline, MEAN (SD) (baseline to fixed dose week 3): −47.9 (33.29) percent
- Pain intensity, change from baseline, MAXIMUM [3]: 3.0
- Pain intensity, change from baseline, MEDIAN [3]: −4.0
- Pain intensity, change from baseline, MINIMUM [3]: −9.7
- Pain intensity, percent change from baseline, MAXIMUM [3]: 42.9%
- Pain intensity, percent change from baseline, MEDIAN [3]: −54.2%
- Pain intensity, percent change from baseline, MINIMUM [3]: −100.0%
- Pain intensity, change from baseline, MEAN (SD) (baseline to fixed dose week 4): −3.6 (2.68)
- Pain intensity, percent change from baseline, MEAN (SD) (baseline to fixed dose week 4): −47.4 (33.84) percent
- Pain intensity, change from baseline, MAXIMUM [4]: 3.0
- Pain intensity, change from baseline, MEDIAN [4]: −4.0
- Pain intensity, change from baseline, MINIMUM [4]: −9.7
- Pain intensity, percent change from baseline, MAXIMUM [4]: 42.9%
- Pain intensity, percent change from baseline, MEDIAN [4]: −53.3%
- Pain intensity, percent change from baseline, MINIMUM [4]: −100.0%
- Pain intensity, change from baseline, MEAN (SD) (baseline to fixed dose week 5): −3.6 (2.72)
- Pain intensity, percent change from baseline, MEAN (SD) (baseline to fixed dose week 5): −47.4 (34.44) percent
- Pain intensity, change from baseline, MAXIMUM [5]: 3.0
- Pain intensity, change from baseline, MEDIAN [5]: −4.0
- Pain intensity, change from baseline, MINIMUM [5]: −9.7
- Pain intensity, percent change from baseline, MAXIMUM [5]: 42.9%
- Pain intensity, percent change from baseline, MEDIAN [5]: −52.4%
- Pain intensity, percent change from baseline, MINIMUM [5]: −100.0%
- Pain intensity, change from baseline, MEAN (SD) (baseline to fixed dose week 6): −3.6 (2.70)
- Pain intensity, change from baseline, MAXIMUM [6]: 3.0
- Pain intensity, change from baseline, MEDIAN [6]: −4.0
- Pain intensity, change from baseline, MINIMUM [6]: −9.7
- Pain intensity, actual value, MEAN (SD) (fixed dose week 1): 3.9 (2.53)
- Pain intensity, actual value, MAXIMUM (fixed dose week 1, LOCF): 10.0
- Pain intensity, actual value, MEDIAN (fixed dose week 1, LOCF): 3.7
- Pain intensity, actual value, MINIMUM (fixed dose week 1, LOCF): 0.0
- Pain intensity, actual value, MEAN (SD) (fixed dose week 2): 3.9 (2.47)
- Pain intensity, actual value, MAXIMUM (fixed dose week 2, LOCF): 10.0
- Pain intensity, actual value, MEDIAN (fixed dose week 2, LOCF): 3.7
- Pain intensity, actual value, MINIMUM (fixed dose week 2, LOCF): 0.0
- Pain intensity, actual value, MEAN (SD) (fixed dose week 3): 3.9 (2.52)
- Pain intensity, actual value, MAXIMUM (fixed dose week 3, LOCF): 10.0
- Pain intensity, actual value, MEDIAN (fixed dose week 3, LOCF): 3.3
- Pain intensity, actual value, MINIMUM (fixed dose week 3, LOCF): 0.0
- Pain intensity, actual value, MEAN (SD) (fixed dose week 4): 3.9 (2.55)
- Pain intensity, actual value, MAXIMUM (fixed dose week 4, LOCF): 10.0
- Pain intensity, actual value, MEDIAN (fixed dose week 4, LOCF): 3.3
- Pain intensity, actual value, MINIMUM (fixed dose week 4, LOCF): 0.0
- Pain intensity, actual value, MEAN (SD) (fixed dose week 5): 3.9 (2.59)
- Pain intensity, actual value, MAXIMUM (fixed dose week 5, LOCF): 10.0
- Pain intensity, actual value, MEDIAN (fixed dose week 5, LOCF): 3.3
- Pain intensity, actual value, MINIMUM (fixed dose week 5, LOCF): 0.0
- Pain intensity, actual value, MEAN (SD) (fixed dose week 6): 3.9 (2.58)
- Pain intensity percent change from baseline to fixed dose week 6, maximum (fixed dose week 6, LOCF, ITT): 42.9%
- Pain intensity percent change from baseline to fixed dose week 6, mean (SD) (fixed dose week 6, LOCF, ITT): −47.5 (34.20) %
- Pain intensity percent change from baseline to fixed dose week 6, median (fixed dose week 6, LOCF, ITT): −51.9%
- Pain intensity percent change from baseline to fixed dose week 6, minimum (fixed dose week 6, LOCF, ITT): −100.0%
- Pain intensity, actual value, MAXIMUM (fixed dose week 6, LOCF): 10.0
- Pain intensity, actual value, MEDIAN (fixed dose week 6, LOCF): 3.3
- Pain intensity, actual value, MINIMUM (fixed dose week 6, LOCF): 0.0

Reference: patent US20060009478A1, “Methods for the treatment of back pain” (priority 2003, published 2006)
